Columns and labels:
Experiment in all cases: Eurofins kinase panel
Format in all cases: biochemical
Details in all cases: read-out: Inhibition rate (%)
CDK2/cyclinA(h) = molecular target: T1, CDK2/cyclinA(h) (Homo sapiens, UniProt P24941)
T1 construct: purchased Eurofins (KinaseProfiler)

CK1γ2(h) = molecular target: T2, CK1γ2(h) (Homo sapiens, UniProt P78368)
T2 construct: purchased Eurofins (KinaseProfiler)

DRAK2(h) = molecular target: T3, DRAK2(h) (Homo sapiens, UniProt O94768)
T3 construct: purchased Eurofins (KinaseProfiler)
T3 sequence (O94768 1-372): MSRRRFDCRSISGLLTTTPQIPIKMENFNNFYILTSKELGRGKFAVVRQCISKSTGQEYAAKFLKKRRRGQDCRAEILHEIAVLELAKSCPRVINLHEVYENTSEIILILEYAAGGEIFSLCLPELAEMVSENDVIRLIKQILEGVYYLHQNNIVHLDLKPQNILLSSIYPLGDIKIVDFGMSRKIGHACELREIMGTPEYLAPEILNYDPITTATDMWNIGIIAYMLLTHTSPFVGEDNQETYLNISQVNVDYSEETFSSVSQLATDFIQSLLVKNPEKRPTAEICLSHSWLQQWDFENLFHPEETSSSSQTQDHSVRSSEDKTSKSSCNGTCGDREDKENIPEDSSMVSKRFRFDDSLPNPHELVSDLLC

FAK(h) = molecular target: T4, FAK(h) (Homo sapiens, UniProt Q05397)
T4 construct: purchased Eurofins (KinaseProfiler)

Fms(Y969C)(h) = molecular target: T5, Fms(Y969C)(h) (Homo sapiens, UniProt P07333, Y969C)
T5 construct: purchased Eurofins (KinaseProfiler)

Haspin(h) = molecular target: T6, Haspin(h) (Homo sapiens, UniProt Q8TF76)
T6 construct: purchased Eurofins (KinaseProfiler)
T6 sequence (Q8TF76 1-798): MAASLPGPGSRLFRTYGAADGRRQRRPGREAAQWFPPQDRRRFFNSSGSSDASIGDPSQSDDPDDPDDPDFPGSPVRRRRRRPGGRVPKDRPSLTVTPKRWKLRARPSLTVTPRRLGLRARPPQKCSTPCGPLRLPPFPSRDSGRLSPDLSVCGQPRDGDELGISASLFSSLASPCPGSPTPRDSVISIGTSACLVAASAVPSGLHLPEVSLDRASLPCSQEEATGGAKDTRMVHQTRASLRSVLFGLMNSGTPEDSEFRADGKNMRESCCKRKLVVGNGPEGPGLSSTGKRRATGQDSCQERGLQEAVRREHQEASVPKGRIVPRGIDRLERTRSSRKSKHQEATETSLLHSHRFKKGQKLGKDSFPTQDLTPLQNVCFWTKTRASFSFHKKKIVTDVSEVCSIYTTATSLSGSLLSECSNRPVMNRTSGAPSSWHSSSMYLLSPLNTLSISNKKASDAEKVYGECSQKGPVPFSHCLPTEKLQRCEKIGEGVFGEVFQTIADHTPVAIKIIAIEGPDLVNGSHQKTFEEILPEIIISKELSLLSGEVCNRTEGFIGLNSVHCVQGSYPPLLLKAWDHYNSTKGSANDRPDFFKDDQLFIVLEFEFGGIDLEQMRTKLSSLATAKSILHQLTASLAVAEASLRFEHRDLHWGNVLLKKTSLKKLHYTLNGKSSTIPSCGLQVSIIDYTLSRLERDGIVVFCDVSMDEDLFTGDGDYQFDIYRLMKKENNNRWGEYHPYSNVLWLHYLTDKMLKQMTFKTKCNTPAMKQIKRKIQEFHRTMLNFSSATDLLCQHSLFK

IGF-1R(h), activated = molecular target: T7, IGF-1R(h), activated (Homo sapiens, UniProt P08069)
T7 construct: purchased Eurofins (KinaseProfiler)

PAK5(h) = molecular target: T8, PAK5(h) (Homo sapiens, UniProt Q9P286)
T8 construct: purchased Eurofins (KinaseProfiler)

PDGFRα(h) = molecular target: T9, PDGFRα(h) (Homo sapiens, UniProt P16234)
T9 construct: purchased Eurofins (KinaseProfiler)
T9 sequence (P16234 24-1089): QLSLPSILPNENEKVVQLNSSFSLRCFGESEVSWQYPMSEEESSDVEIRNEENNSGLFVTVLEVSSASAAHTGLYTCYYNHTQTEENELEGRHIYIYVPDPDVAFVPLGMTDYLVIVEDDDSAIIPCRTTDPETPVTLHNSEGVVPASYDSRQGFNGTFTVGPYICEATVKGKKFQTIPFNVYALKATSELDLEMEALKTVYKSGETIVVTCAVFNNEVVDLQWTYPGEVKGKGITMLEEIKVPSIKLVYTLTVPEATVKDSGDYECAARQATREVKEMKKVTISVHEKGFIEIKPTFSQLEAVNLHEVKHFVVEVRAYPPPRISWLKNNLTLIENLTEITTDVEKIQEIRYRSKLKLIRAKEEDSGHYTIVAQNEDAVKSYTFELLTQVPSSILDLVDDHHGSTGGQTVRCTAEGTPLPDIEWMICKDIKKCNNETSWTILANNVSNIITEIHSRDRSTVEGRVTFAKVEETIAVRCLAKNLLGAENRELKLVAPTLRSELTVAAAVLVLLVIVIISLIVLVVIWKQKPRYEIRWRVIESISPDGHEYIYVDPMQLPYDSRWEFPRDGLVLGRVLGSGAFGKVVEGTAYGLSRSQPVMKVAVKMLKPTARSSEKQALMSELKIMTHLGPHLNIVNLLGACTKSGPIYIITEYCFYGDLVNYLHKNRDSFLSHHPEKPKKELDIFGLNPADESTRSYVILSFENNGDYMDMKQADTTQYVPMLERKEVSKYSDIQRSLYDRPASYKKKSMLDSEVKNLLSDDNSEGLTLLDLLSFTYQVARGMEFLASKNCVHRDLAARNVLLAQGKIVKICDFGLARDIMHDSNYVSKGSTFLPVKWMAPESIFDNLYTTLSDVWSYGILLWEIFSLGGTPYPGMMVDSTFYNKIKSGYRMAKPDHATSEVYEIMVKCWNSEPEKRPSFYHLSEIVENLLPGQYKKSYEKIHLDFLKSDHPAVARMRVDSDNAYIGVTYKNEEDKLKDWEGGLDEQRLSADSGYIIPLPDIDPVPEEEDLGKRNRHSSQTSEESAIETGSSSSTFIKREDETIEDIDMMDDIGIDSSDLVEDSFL

T2 sequence (P78368 whole entry): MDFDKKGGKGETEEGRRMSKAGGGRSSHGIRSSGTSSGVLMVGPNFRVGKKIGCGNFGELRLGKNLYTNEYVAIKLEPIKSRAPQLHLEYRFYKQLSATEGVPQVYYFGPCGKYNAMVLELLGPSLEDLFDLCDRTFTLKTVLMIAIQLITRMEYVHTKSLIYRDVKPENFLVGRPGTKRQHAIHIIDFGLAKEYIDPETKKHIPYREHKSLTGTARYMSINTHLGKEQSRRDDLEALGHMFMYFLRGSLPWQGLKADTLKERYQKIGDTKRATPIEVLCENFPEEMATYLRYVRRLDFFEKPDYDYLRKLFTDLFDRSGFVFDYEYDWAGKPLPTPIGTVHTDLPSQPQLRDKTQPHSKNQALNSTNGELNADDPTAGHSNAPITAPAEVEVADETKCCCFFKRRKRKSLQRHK
T8 sequence (Q9P286 whole entry): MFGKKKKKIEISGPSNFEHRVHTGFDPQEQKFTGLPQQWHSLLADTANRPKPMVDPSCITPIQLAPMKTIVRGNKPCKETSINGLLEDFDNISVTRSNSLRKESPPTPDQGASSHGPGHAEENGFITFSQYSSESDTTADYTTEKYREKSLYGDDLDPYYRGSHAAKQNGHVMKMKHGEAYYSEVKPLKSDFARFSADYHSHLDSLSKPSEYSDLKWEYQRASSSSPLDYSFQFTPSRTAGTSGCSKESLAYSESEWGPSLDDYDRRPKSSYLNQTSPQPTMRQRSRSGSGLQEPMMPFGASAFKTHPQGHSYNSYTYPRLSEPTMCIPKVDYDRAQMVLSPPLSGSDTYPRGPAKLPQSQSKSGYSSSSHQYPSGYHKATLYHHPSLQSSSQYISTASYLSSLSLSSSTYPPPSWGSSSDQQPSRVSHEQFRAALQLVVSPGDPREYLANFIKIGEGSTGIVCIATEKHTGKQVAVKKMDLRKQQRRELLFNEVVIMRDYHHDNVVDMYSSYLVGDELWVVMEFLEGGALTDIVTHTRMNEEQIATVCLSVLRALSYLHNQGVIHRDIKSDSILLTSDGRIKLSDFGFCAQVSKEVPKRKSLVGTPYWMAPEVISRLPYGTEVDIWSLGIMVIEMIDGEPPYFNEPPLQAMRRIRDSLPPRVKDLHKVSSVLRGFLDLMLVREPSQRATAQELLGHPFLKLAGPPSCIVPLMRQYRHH
T4 sequence (Q05397 whole entry): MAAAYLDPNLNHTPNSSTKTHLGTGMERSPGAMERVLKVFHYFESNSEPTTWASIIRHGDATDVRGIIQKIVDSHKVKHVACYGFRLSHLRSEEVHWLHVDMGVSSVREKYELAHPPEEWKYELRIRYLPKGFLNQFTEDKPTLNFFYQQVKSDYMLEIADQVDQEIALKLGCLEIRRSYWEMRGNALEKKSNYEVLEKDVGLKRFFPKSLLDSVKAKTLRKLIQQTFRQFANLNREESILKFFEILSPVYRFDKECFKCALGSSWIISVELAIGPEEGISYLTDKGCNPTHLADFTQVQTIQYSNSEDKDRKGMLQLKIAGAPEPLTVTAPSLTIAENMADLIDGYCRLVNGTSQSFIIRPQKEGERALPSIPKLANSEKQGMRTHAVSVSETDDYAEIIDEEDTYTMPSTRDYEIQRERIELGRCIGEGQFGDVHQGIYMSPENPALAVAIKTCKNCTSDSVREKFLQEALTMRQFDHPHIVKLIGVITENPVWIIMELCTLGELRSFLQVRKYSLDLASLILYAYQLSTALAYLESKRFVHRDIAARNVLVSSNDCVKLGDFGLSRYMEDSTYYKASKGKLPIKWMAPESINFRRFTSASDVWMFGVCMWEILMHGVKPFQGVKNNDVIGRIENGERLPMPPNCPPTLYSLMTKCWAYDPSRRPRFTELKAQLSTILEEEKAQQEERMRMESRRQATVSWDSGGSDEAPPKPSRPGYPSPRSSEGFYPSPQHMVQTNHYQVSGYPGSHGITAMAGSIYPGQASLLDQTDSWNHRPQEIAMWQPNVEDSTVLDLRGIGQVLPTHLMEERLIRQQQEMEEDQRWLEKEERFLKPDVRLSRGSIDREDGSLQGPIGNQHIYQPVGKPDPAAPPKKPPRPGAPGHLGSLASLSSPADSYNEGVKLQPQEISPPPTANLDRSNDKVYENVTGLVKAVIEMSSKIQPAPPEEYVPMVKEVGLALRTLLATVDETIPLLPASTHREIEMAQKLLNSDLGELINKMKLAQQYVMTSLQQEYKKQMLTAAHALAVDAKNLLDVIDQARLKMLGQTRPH
T5 sequence (P07333 20-972 Y969C): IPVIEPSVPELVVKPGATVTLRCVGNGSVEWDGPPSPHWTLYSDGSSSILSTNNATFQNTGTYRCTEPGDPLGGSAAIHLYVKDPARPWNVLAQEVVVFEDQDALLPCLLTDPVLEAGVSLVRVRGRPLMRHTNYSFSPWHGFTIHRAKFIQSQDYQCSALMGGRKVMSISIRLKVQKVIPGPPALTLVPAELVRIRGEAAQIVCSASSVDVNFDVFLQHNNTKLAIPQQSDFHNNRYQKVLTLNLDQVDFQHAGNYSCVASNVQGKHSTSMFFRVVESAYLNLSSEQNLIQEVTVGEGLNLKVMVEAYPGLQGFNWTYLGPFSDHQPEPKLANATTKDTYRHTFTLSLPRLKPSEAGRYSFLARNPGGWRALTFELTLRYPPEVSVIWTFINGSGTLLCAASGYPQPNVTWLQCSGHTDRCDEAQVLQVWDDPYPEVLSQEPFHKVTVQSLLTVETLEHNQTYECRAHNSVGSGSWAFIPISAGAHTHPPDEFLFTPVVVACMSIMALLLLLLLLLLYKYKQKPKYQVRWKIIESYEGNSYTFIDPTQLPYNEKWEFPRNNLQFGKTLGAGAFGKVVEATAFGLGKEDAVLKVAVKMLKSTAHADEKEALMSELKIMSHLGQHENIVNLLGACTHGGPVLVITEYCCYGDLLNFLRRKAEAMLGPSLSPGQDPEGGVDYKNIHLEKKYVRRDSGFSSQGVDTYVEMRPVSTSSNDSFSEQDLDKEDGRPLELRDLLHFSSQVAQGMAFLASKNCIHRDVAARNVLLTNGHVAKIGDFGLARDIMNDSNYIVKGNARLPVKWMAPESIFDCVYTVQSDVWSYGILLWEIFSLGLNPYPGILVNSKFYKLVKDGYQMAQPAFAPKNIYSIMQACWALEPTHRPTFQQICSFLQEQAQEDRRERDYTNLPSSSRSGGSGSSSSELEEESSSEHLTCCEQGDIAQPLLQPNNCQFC

## COc1cc(OC)c(Cl)c(-c2ccc3c(NC(=O)c4ccc(N5CCNC(C)(C)C5)cc4)n[nH]c3n2)c1Cl [3D185]
CDK2/cyclinA(h); 10 nM
  inhibition at 0.01 µM: 2%
CDK2/cyclinA(h); 100 nM
  inhibition at 0.1 µM: 7%
CDK2/cyclinA(h); 1000 nM
  inhibition at 1 µM: -3%
CK1γ2(h); 10 nM
  inhibition at 0.01 µM: -9%
CK1γ2(h); 100 nM
  inhibition at 0.1 µM: -8%
CK1γ2(h); 1000 nM
  inhibition at 1 µM: -7%
DRAK2(h); 10 nM
  inhibition at 0.01 µM: -5%
DRAK2(h); 100 nM
  inhibition at 0.1 µM: -13%
DRAK2(h); 1000 nM
  inhibition at 1 µM: 3%
FAK(h); 10 nM
  inhibition at 0.01 µM: 17%
FAK(h); 100 nM
  inhibition at 0.1 µM: 29%
FAK(h); 1000 nM
  inhibition at 1 µM: 58%
Fms(Y969C)(h); 10 nM
  inhibition at 0.01 µM: 34%
Fms(Y969C)(h); 100 nM
  inhibition at 0.1 µM: 75%
Fms(Y969C)(h); 1000 nM
  inhibition at 1 µM: 95%
Haspin(h); 10 nM
  inhibition at 0.01 µM: -15%
Haspin(h); 100 nM
  inhibition at 0.1 µM: -6%
Haspin(h); 1000 nM
  inhibition at 1 µM: 4%
IGF-1R(h), activated; 10 nM
  inhibition at 0.01 µM: -12%
IGF-1R(h), activated; 100 nM
  inhibition at 0.1 µM: 6%
IGF-1R(h), activated; 1000 nM
  inhibition at 1 µM: 49%
PAK5(h); 10 nM
  inhibition at 0.01 µM: -11%
PAK5(h); 100 nM
  inhibition at 0.1 µM: -2%
PAK5(h); 1000 nM
  inhibition at 1 µM: 5%
PDGFRα(h); 10 nM
  inhibition at 0.01 µM: 9%
PDGFRα(h); 100 nM
  inhibition at 0.1 µM: 6%
PDGFRα(h); 1000 nM
  inhibition at 1 µM: 10%

Reference: publication PMC6704710, “Preclinical evaluation of 3D185, a novel potent inhibitor of FGFR1/2/3 and CSF-1R, in FGFR-dependent and macrophage-dominant cancer models” (Journal of Experimental & Clinical Cancer Research : CR, 2019)
